Results on eight compounds are retold here after US10414754B2, “Indolizine compounds, a process for their preparation and pharmaceutical compositions containing them” (LES LABORATOIRES SERVIER, priority 2013, dated 2019).

In experiment [1] the test system is RS4;11 leukaemia tumour line. The experiment can be described thus: In vitro cytotoxicity (MTT) on RS4;11. It is filed as cell-based. The conditions noted are these: Homo sapiens; RS4;11 cells, 48 hours exposure. How it is done:
The cytotoxicity studies were carried out on the RS4;11 leukaemia tumour line.
The cells are distributed onto microplates and exposed to the test compounds for 48 hours.
The cell viability is then quantified by a colorimetric assay, the Microculture Tetrazolium Assay (Cancer Res., 1987, 47, 939-942).

A further experiment has as its target T1, Bcl-2 protein (histag-Bcl-2, UniProtKB P10415) (Homo sapiens, UniProt P10415).
T1 construct: His tag
The experiment in a line: Inhibition of Bcl-2 by the fluorescence polarisation technique. It is filed as binding. The note with it: fluorescence polarisation, 2 hours incubation; read-out: IC50 (nM) Bcl-2 FP. How it is done: The fluorescence polarisation tests were carried out on microplates (384 wells). The Bcl-2 protein, labelled (histag-Bcl-2 such that Bcl-2 corresponds to the UniProtKB® primary accession number: P10415), at a final concentration of 2.50×10^−8 M, is mixed with a fluorescent peptide (Fluorescein-[…]), at a final concentration of 1.00×10^−8M in a buffer solution (Hepes 10 mM, NaCl 150 mM, Tween20 0.05%, pH 7.4), in the presence or absence of increasing concentrations of test compounds. After incubation for 2 hours, the fluorescence polarisation is measured.
(Fluorescence polarisation rises when a labelled molecule tumbles more slowly, as on binding a larger partner.)

Where a name gives a salt, the structure may show the parent alone.

T1 sequence (P10415 whole entry): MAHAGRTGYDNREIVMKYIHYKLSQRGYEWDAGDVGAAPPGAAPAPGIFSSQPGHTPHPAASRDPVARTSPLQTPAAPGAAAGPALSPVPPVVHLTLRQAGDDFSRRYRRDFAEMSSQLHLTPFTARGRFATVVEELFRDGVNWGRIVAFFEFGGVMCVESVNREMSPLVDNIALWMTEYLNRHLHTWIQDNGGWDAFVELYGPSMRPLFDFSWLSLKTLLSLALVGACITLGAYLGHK

Broadly, the IC50 is the midpoint of a concentration-inhibition curve. As to `CCCCN(C(=O)c1cc(-c2cc3c(cc2C(=O)N2Cc4ccccc4C[C@H]2C)OCO3)n2c1CNCC2)c1ccc(O)cc1` [Example 79, N-Butyl-N-(4-hydroxyphenyl)-6-(6-{[(3R)-3-methyl-3,4-dihydroiso-quinolin-2(1H)-yl]carbonyl}-1,3-benzodioxol-5-yl)-1,2,3,4-tetrahydropyrrolo[1,2-a]-pyrazine-8-carboxamide], the results for the IC50 (in experiment [1]; on Bcl-2 protein) were 1010 nM and 99.1 nM, respectively.
In the case of `CCN(C(=O)c1cc(-c2cc3c(cc2C(=O)N2Cc4ccccc4C[C@H]2C)OCO3)n2c1CNCC2)c1ccc(O)cc1` [Example 73, N-Ethyl-N-(4-hydroxyphenyl)-6-(6-{[(3R)-3-methyl-3,4-dihydroiso-quinolin-2(1H)-yl]carbonyl}-1,3-benzodioxol-5-yl)-1,2,3,4-tetrahydropyrrolo[1,2-a]-pyrazine-8-carboxamide], the IC50 worked out at 1320 nM in experiment [1] and 83.6 nM on Bcl-2 protein.
For the compound `O=C(c1cc(-c2cc3c(cc2C(=O)N2Cc4ccccc4C[C@H]2CCN2CCOCC2)OCO3)n2c1CCCC2)N(c1ccc(O)cc1)c1cccc(F)c1` [Example 24, N-(3-Fluorophenyl)-N-(4-hydroxyphenyl)-3-(6-{[(3S)-3-[2-(morpholin-4-yl)ethyl]-3,4-dihydroisoquinolin-2(1H)-yl]carbonyl}-1,3-benzodioxol-5-yl)-5,6,7,8-tetrahydroindolizine-1-carboxamide hydrochloride], the values for the IC50 (in experiment [1]; on Bcl-2 protein) were 28.4 nM and 6.2 nM, respectively.
As to `C[C@@H]1Cc2ccccc2CN1C(=O)c1ccc(F)cc1-c1cc(C(=O)N(c2ccncc2)c2ccc(O)cc2)c2n1CCCC2` [Example 64, 3-(5-Fluoro-2-{[(3R)-3-methyl-3,4-dihydroisoquinolin-2(1H)-yl]-carbonyl}phenyl)-N-(4-hydroxyphenyl)-N-(pyridin-4-yl)-5,6,7,8-tetrahydroindolizine-1-carboxamide], the IC50 amounted to 282 nM in experiment [1] and 7.8 nM on Bcl-2 protein.
Regarding `CC(C)c1cc(N(C(=O)c2cc(-c3cc4c(cc3C(=O)N3Cc5ccccc5C[C@H]3C)OCO4)n3ccccc23)c2ccc(O)cc2)ccn1` [Example 58, N-(4-Hydroxyphenyl)-3-(6-{[(3R)-3-methyl-3,4-dihydroisoquinolin-2(1H)-yl]carbonyl}-1,3-benzodioxol-5-yl)-N-[2-(propan-2-yl)pyridin-4-yl)indolizine-1-carboxamide hydrochloride], the IC50 in experiment [1] stood at 68.5 nM; at Bcl-2 protein, 6.4 nM.
Consider `C[C@@H]1Cc2ccccc2CN1C(=O)c1cc2c(cc1-c1cc(C(=O)N(c3ccccc3)c3ccc(O)cc3)c3n1CCCC3)OCO2` [Example 40, N-(4-Hydroxyphenyl)-3-(6-{[(3R)-3-methyl-3,4-dihydroisoquinolin-2(1H)-yl]carbonyl}-1,3-benzodioxol-5-yl)-N-phenyl-5,6,7,8-tetrahydroindolizine-1-carboxamide], for which the results for the half-maximal inhibitory concentration (IC50) (in experiment [1]; on Bcl-2 protein) were 49 nM and 6 nM, respectively.
As for `C[C@@H]1Cc2ccccc2CN1C(=O)c1cc2c(cc1-c1cc(C(=O)N(c3ccc(O)cc3)c3cnc4c(ccn4C)c3)c3ccccn13)OCO2` [Example 33, N-(4-Hydroxyphenyl)-3-(6-{[(3R)-3-methyl-3,4-dihydroisoquinolin-2(1H)-yl]carbonyl}-1,3-benzodioxol-5-yl)-N-(1-methyl-1H-pyrrolo[2,3-b]pyridin-5-yl)indolizine-1-carboxamide hydrochloride], the values for the IC50 (in experiment [1]; at Bcl-2 protein) were 6.33 nM and 4.6 nM, respectively.
For `Cn1ccc2cc(N(C(=O)c3cc(-c4cc5c(cc4C(=O)N4Cc6ccccc6C[C@H]4CCCN4CCOCC4)OCO5)n4c3CCCC4)c3ccc(O)cc3)cnc21` [Example 69, N-(4-Hydroxyphenyl)-N-(1-methyl-1H-pyrrolo[2,3-b]pyridin-5-yl)-3-(6-{[(3R)-3-[3-(morpholin-4-yl)propyl]-3,4-dihydroisoquinolin-2(1H)-yl]carbonyl}-1,3-benzodioxol-5-yl)-5,6,7,8-tetrahydroindolizine-1-carboxamide hydrochloride], the IC50 in experiment [1] is 1.38 nM; at Bcl-2 protein, 4.6 nM.
